Literature values in patent US20050244462A1, “Devices and methods for treating a mammalian eye” (Allergan, Inc., priority 2004, published 2005).

Conditions: steroidal anti-inflammatory efficacy in vivo; 25 mg hydrocortisone equivalent to 1 mg dexamethasone; Goodman and Gilman 8th ed. p. 1447

Compound: C[C@]12CCC(=O)C=C1CC[C@@H]1[C@@H]2[C@@H](O)C[C@@]2(C)[C@H]1CC[C@]2(O)C(=O)CO [hydrocortisone]
- potency relative to dexamethasone: approximately twentyfivefold less potent than dexamethasone
